The results in this text go back to patent US20190284168A1, “PYRAZOLE DERIVATIES AS SGC STIMULATORS” (IRONWOOD PHARMACEUTICALS, INC., priority 2014, published 2019).

One assay has as its system Sprague-Dawley Rats. The assay is described as follows: Blood pressure change in Sprague-Dawley rats. The format is in vivo, rat. To be noted: 10 mpk PO, conscious Sprague-Dawley rats. The method, then:
Male rats (250-350 g body weight, supplied by Harlan Laboratories) were anesthetized with ketamine/xylazine and a heparinized saline fluid filled catheter implanted into the right femoral artery. The catheter was exteriorized between the scapula, capped, and the animal allowed to recover for at least 7 days post surgery prior to any compound testing. Prior to testing animals were maintained on normal diet, with free access to drinking water, under a 12 hour light-dark cycle.
On the day of experimentation, under inhaled isoflurane anesthesia, the catheter was uncapped and connected to a tether (Instech Labs) and pressure transducer (Harvard Apparatus). Blood pressure and heart rate were subsequently captured and analyzed with a dedicated data capture system (PowerLab, ADInstruments). Data sampling rates were set at 1 cycle per second. Once connected, each rat was allowed to recover from anesthesia and baseline blood pressure and heart rate levels were established in these conscious, freely-moving animals. Once baseline was established either vehicle (0.5% methylcellulose or 100% PEG400) or test article was administered orally (PO, 10 mg/kg) and the effects on blood pressure and heart rate monitored for up to 24 hours.
Data are reported as hourly averages and changes in blood pressure are calculated from subtracting individual baseline on an hourly basis (Table 4)

The target in assay [1] is T1, soluble guanylate cyclase (sGC) (Homo sapiens, UniProt Q02108+Q02153).
T1 construct: endogenously expressing soluble guanylate cyclase (sGC); endogenous in cells; host or cells: HEK293
T1 sequence (Q02153 1-619): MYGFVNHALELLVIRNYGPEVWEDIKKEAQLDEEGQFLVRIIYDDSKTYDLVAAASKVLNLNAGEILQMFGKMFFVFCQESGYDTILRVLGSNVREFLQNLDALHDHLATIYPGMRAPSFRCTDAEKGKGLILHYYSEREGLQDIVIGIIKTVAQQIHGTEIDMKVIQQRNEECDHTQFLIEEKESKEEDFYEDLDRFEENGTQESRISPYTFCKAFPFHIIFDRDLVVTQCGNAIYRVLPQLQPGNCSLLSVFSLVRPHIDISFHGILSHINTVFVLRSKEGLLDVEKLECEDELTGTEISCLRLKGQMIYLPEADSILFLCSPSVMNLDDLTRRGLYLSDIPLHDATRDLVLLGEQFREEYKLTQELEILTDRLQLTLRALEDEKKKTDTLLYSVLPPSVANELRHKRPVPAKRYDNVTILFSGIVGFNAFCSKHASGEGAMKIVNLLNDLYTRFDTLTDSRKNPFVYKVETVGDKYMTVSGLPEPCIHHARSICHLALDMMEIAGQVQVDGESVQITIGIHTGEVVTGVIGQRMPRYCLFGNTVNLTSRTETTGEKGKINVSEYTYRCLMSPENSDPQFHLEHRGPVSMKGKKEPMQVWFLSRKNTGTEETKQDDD
T1 sequence (Q02108 1-690): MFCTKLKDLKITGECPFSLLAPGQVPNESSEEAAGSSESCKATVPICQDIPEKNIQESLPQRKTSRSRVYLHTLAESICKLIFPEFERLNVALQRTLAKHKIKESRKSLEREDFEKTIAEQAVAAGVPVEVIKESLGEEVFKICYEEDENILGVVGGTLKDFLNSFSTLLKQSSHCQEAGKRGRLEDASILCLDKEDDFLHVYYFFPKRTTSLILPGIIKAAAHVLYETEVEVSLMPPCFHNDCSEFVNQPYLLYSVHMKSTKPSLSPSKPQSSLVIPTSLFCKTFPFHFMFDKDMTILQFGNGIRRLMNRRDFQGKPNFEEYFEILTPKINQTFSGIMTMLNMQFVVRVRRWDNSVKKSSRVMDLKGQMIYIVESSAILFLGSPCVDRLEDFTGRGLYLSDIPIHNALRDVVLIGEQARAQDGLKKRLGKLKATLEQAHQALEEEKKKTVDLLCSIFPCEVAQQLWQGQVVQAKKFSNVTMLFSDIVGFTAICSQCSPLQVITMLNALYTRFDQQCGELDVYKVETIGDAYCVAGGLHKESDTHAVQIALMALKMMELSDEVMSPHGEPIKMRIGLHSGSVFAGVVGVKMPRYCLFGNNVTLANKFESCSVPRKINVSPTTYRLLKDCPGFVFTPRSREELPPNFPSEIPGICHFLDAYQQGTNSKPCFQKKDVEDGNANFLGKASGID
The assay is described as follows: sGC-HEK-cGMP assay with LC/MS detection. The format is cell-based. Particulars: HEK293 whole cells, LC/MS detection of cGMP, 10 μM DETA-NONOate; 50% of high control response (30 μM Compound Y); read-out: Absolute EC50 (nM)- binned (~).

One may read the EC50 as the midpoint of the concentration-response curve.

Turning to `Fc1cnc(-c2cc(-c3ccon3)n(Cc3ccccc3F)n2)nc1` [Compound 109], in the assay on Sprague-Dawley Rats, the “Rat Mean Arterial Pressure peak change from baseline (at 3 or 10 mpk@)” value was “B (B = −20 ≤ peak change from baseline at 3 or 10 mpk ≤ −10)”. Also, the EC50 in assay [1] was in the range of 100 to 1000 nM.
